Source: US12226410B2, “Methods for enhancing cellular clearance of pathological molecules via activation of the cellular protein ykt6” (NORTHWESTERN UNIVERSITY, priority 2019, dated 2025)

What was measured:
ykt6 SNARE complexes = test: Co-IP of GFP-ykt6 SNARE assemblies in FTI-treated SH-SY5Y cells; assay type: cell-based, human; conditions: SH-SY5Y cells expressing GFP-ykt6 wt; 5 nM, 5d
Experimental: FIGS. 5A, 5B, 5C, 5D, 5E, 5F, and 5G. Reducing farnesyl-ykt6 enhances SNARE assembly and improves the lysosomal targeting of GCase. 5A) Ykt6 membrane shift analysis of SH-SY5Y cells expressing GFP-ykt6 wt or CS (n=3). 5B) Co-IP of GFP-ykt6 and bet1 in A53T iPSn (n=3). 5C) Ykt6 membrane shift analysis in FTI-treated SH-SY5Y wt a-syn cells or A53T iPSn (5 nM farnesyltransferase inhibitors (FTI) LNK-754 (FTI-1) or LNK-3248 (FTI-2) for 5 days) (n=4). Sec22b was measured to assess specificity. 5D) SEC/western blot of FTI-1 treated SH-SY5Y cells. Quantification is shown below. 5E) Co-IP of GFP-ykt6 wt or mutant ykt6-SS, (cannot be palmitoylated or farnesylated) in FTI-treated SHSY5Y cells (5 nM LNK-754, 5d) (n=2). 5F) Immunofluorescence of GCase and LAMP2A in FTI-treated H4 a-syn cells transfected with scrambled (scrb) or ykt6 shRNA (n=3). Scale bar=10 um. 5G) GCase maturation analysis in FTI-treated A53T iPSn by endo H (n=3). Values are the mean+/−SEM, *p<0.05.
To co-IP ykt6 SNARE assemblies, approximately 106-107 cells expressing GFP-tagged YKT6, were harvested in 1 ml of PBS, scraped off the plate and transferred to centrifuge tubes. The cells were subjected to centrifugation 200×g for 5 m at 4° C. […] Eluates were analyzed by western blot as described below. The samples were not analyzed in a blinded manner.

H4 a-syn cells = test: Immunofluorescence of GCase and LAMP2A in FTI-treated H4 a-syn cells; assay type: cell-based, human; conditions: 5 nM FTI
Experimental: FIGS. 5A, 5B, 5C, 5D, 5E, 5F, and 5G. Reducing farnesyl-ykt6 enhances SNARE assembly and improves the lysosomal targeting of GCase. 5A) Ykt6 membrane shift analysis of SH-SY5Y cells expressing GFP-ykt6 wt or CS (n=3). 5B) Co-IP of GFP-ykt6 and bet1 in A53T iPSn (n=3). 5C) Ykt6 membrane shift analysis in FTI-treated SH-SY5Y wt a-syn cells or A53T iPSn (5 nM farnesyltransferase inhibitors (FTI) LNK-754 (FTI-1) or LNK-3248 (FTI-2) for 5 days) (n=4). Sec22b was measured to assess specificity. 5D) SEC/western blot of FTI-1 treated SH-SY5Y cells. Quantification is shown below. […]
FIGS. 14A, 14B, 14C, 14D, 14E, 14F, and 14G. […] 14A) Farnesylation of ykt6 was measured in SH-SY5Y cells expressing GFP-ykt6. […] Biotin was detected with streptavidin-conjugated IRDye800, and normalized to total levels of GFP-ykt6. […] Ykt6 complex levels eluting at ca. 120A were quantified on the right (n=2). […] 14E) Raw quantification data of LAMP2A immunofluorescence intensity of individual cells from H4 cells treated with FTI, +/−ykt6 KD. […] For all quantifications, values are the mean+/−SEM, *p<0.05.
For GCase/LAMP2 colocalization, cultures were fixed in 4% PFA in PBS for 20 minutes, then permeabilized in 0.2% saponin in 0.2% glycine buffer as described previously (Mazzulli et al., 2016b). […] Cells were mounted in DAPI-Fluoromount G (Southern Biotech) and analyzed by confocal microscopy as above. […]

In the case of C#Cc1cccc(-c2cc(=O)n(C)c3ccc([C@](O)(c4ccc(Cl)cc4)c4cncn4C)cc23)c1 [LNK-754], the “ykt6 SNARE complexes by co-IP” value (ykt6 SNARE complexes) is reported as “increased ykt6 SNARE complexes” and the “levels of LAMP2A and GCase by immunostaining” value (H4 a-syn cells) is reported as “elevated the levels of LAMP2A and GCase”.
